Legend:
[1] = Spreading characteristics on WHATMAN filter paper (50 microliters); type: physicochemical; conditions: for Spreadibility (1 minute) / Spreadibility (3 minutes) / Spreadibility (5 minutes): 50 microliters on filter paper
Description: The spreading characteristics of fluid used in personal care products are an effective predictor of “skin feel.” To test the spreading characteristics a four inch WHATMAN® filter paper was positioned horizontally over an eight ounce jar. Fifty microliters of each product were then pipetted onto the center of the filter paper. The spreading area of the liquid was then measured at intervals of one, three, and five minutes. Faster spreading products will have a higher spreading area at each time interval.

[2] = Kinematic viscosity at 25° C. (ASTM D-445-97); type: physicochemical
Description: Kinematic viscosity was tested at 25° C. using ASTM (American Society of Testing and Materials, West Conshohocken, Pa., United States of America) Official Method No. D-445-97 (1997), the contents of which are incorporated herein by reference. Color was measured using ASTM D-1209-97 (1997), acid value was determined using ASTM D-972-95 (1995) and hydroxyl number was determined using a modified version of AOCS (American Oil Chemists Society, Champaign, Ill., United States of America) Official Method No. Cd-13-60 (1997), the contents of which are incorporated herein by reference. Odor was determined using a subjective olfactory assessment.

SMILES | Spreadibility (1 minute) [1] | Spreadibility (3 minutes) [1] | Spreadibility (5 minutes) [1] | Viscosity at 25° C. [2] | Spreadibility (1 minute) ([1]; listed as D5 Fluid) | Spreadibility (3 minutes) ([1]; listed as D5 Fluid) | Spreadibility (5 minutes) ([1]; listed as D5 Fluid) | spreading (in words) ([1]; stated in description) | viscosity ([2]; stated in description)
CCC(CC)C(=O)OCC(C)(C)COC(=O)C(CC)CC [ND2EB, neopentyl glycol di-2-ethylbutyrate] | 3.00 cm | 3.43 cm | 3.63 cm | 7.6 cSt | – | – | – | – | –
CCCCCC(=O)OCCOCCOC(=O)CCCCC [DEGDH, diethylene glycol dihexanoate] | 2.98 cm | 3.43 cm | 3.68 cm | 14.4 cSt | – | – | – | – | –
CC(C)C(=O)OCC(C)(C)COC(=O)C(C)C [NDI] | 3.18 cm | 3.63 cm | 3.88 cm | 3.5 cSt | – | – | – | – | –
CCCCC(=O)OCC(C)(C)COC(=O)CCCC [NDP, neopentyl glycol dipentanoate] | 3.08 cm | 3.48 cm | 3.85 cm | 5.1 cSt | – | – | – | rapidly spreading | 5.1 centistokes

The next lines start with the values.

Spreadibility (1 minute) [1] | Spreadibility (3 minutes) [1] | Spreadibility (5 minutes) [1] | Viscosity at 25° C. [2] | Spreadibility (1 minute) ([1]; listed as D5 Fluid) | Spreadibility (3 minutes) ([1]; listed as D5 Fluid) | Spreadibility (5 minutes) ([1]; listed as D5 Fluid) | spreading (in words) ([1]; stated in description) | viscosity ([2]; stated in description) | SMILES
3.10 cm | 3.50 cm | 3.60 cm | – | – | – | – | – | – | C[Si]1(C)O[Si](C)(C)O[Si](C)(C)O[Si](C)(C)O1 [Example D4, reference compound]
2.90 cm | 3.40 cm | 3.60 cm | 4.0 cSt | 2.9 cm | 3.4 cm | 3.6 cm | – | – | C[Si]1(C)O[Si](C)(C)O[Si](C)(C)O[Si](C)(C)O[Si](C)(C)O1 [Example D5, reference compound]

— US20050260150A1, “Polyol polyester-containing personal care products that do not contain low viscosity silicone fluids” (INOLEX INVESTMENT CORP., priority 2004, published 2005)
